These results are taken from the METLIN SMRT retention time set (Domingo-Almenara et al. 2019).

The series is described as follows: gradient 5% acetonitrile 3 min, to 50% in 2 min, to 85% in 15 min, held 3 min, 100 µL/min. To be noted: column: Zorbax Extend-C18 2.1 x 50 mm; eluents: water / acetonitrile, 0.1% formic acid. The method, boiled down:
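Retention times come from adduct peaks that were picked computationally and then checked by hand. The standards, pure and pooled in mixtures of ~100 molecules, were run on a Zorbax Extend-C18 column (2.1 × 50 mm, 1.8 μm) at 100 μL/min with water and acetonitrile, each with 0.1% formic acid. Detection was by quadrupole time-of-flight mass spectrometry in positive and negative ionization mode, with a dead volume of 40 μL and a dwell volume of 900 μL.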
Consider `O=C(NOC[C@H](O)CO)c1ccc(F)c(F)c1Nc1ccc(I)cc1F`, for which the RP-LC retention time was 886 s.

Molecule `Cc1cc(OCC(=O)Nc2ccc(C(C)C)cc2)nc(N2CCN(c3ccccc3)CC2)n1` returned an RP-LC retention time of 981 s. On to `COc1ccc(C2(CNC(=O)C(=O)NCC3COc4ccccc4O3)CCOCC2)cc1` (centres undefined), for which the RP-LC retention time came to 899 s.

Molecule `COc1cc(OC)cc(-c2nnc(Cc3nc(-c4cccc(Cl)c4)no3)o2)c1` showed an RP-LC retention time of 1130 s. Next, `CC(C)Cc1csc(-c2csc(S(=O)(=O)NC3CCCCC3)c2)n1`: 1320 s; `CC12C(=O)N(Cc3ccccc3)C(=O)C1C1C=CC2C1` (centres undefined): 844 s; `CCC(C)NC(=O)C1CCN(c2cnc(N3CCN(CC)CC3)nc2)CC1` (centres undefined): 575 s. The molecule `O=C([C@@H]1C[C@H](Oc2cccnc2)CN1C(=O)c1ccco1)N1CCCC1` returned an RP-LC retention time of 553 s. For `COc1ccccc1N1CCN(c2nccc(-n3nc(C)cc3C)n2)CC1`, the RP-LC retention time amounted to 1010 s. The molecule `Cc1noc2nc(CCC(=O)NCCCN3CCc4ccccc4C3)nc(N3CCC(C)CC3)c12` yielded an RP-LC retention time of 703 s. As to `CCN1CCN(CCNC(=O)CN2C(=O)C3CCCCN3c3ccc(C(=O)N4CCCC4)cc32)CC1` (centres undefined), the RP-LC retention time was 591 s.

`COc1ccc(C(C)NC(=O)C2CCN(c3cnc4nccnc4c3)CC2)cc1OC` (centres undefined) displayed an RP-LC retention time of 664 s. Next, `Cc1ccc(Nc2cc(C)nc(N3CCN(C(=O)Nc4cccc(C)c4)CC3)n2)cc1`: 1460 s; `Cc1ccc(NC(=O)NCC(c2cccnc2)c2cn(C)c3ccccc23)cc1` (centres undefined): 816 s.

Take `CCc1noc(NC(C)=O)c1-c1ccc(C)c(S(=O)(=O)Nc2ccccc2)c1`: the RP-LC retention time is 719 s.

In the case of `CC(=O)N1c2ccc(S(=O)(=O)N3CCC(C(=O)Nc4cccnc4)CC3)cc2CC1C` (centres undefined), the RP-LC retention time was determined as 617 s. `O=C(NCc1[nH]nc2ccccc12)C1CC(=O)N(c2cccc(Cl)c2)C1` (centres undefined) gave an RP-LC retention time of 743 s. `Cc1ccc(NC(=O)N2CCC(CC(=O)N3CCCCC3)CC2)cc1Cl`: the RP-LC retention time was determined as 861 s. As for `Fc1cccc(-n2cc(-c3noc(-c4ccccc4F)n3)nn2)c1`, the RP-LC retention time was 1050 s. As for `COc1ccc(C2CC(=O)N(c3cccc(Cl)c3)C(=O)C2)cc1`, the figure is 939 s; as for `CCc1nc2cccnc2n1CCN1CCN(C(=O)Nc2ccccc2Br)CC1`, 641 s. For `CC1CCCN(CC2CCN(S(=O)(=O)CCc3ccccc3)CC2)C1` (centres undefined), the RP-LC retention time was determined as 677 s. `CN1CCN(Cc2nn(C)c3c2CN(S(=O)(=O)c2ccc(F)c(Cl)c2)CC3)CC1` returned an RP-LC retention time of 622 s.

Molecule `O=S(=O)(Nc1ccc(-c2noc(-c3ccc(Cl)cc3)n2)cc1)c1cccs1` gave an RP-LC retention time of 1180 s. As for `O=C(NCc1ccc(F)cc1F)C1CCN(c2ncnc3c2oc2ccccc23)CC1`, the RP-LC retention time was found to be 761 s.

In the case of `Cc1cc(C(=O)N2CCCCC2)c2c(=O)n(Cc3ccc(Cl)cc3)c(=O)n(C)c2n1`, the RP-LC retention time worked out at 1020 s. `CC(C)CCNC(=O)CN1C(=O)CC(c2cccs2)=Nc2ccccc21` registered an RP-LC retention time of 888 s. Next, `Cc1nc(Nc2ccc(F)cn2)sc1C(=O)N1CCN(c2ncccn2)CC1`: 719 s. The molecule `CSc1ccccc1C(=O)Nc1ccc2cn[nH]c2c1` came in with an RP-LC retention time of 673 s. Consider `Cc1cccc2c(C(N)=O)cc(N3CCCC3)nc12`, for which the RP-LC retention time was 570 s.

For `Cc1nn(-c2ccc(C(=O)NCc3cccs3)cc2)c2c1C(=O)CC(C)(C)C2`, the RP-LC retention time is 841 s. Consider `CC(C)CNC(=O)c1ccc2nc(CCc3ccc(NC(=O)C(C)C)cc3)[nH]c2c1`, for which the RP-LC retention time was determined as 644 s. Next, `Cc1ccc(-n2nc(C)c3nc(CCC(=O)N4CCN(c5ccccn5)CC4)c(=O)n(C)c32)cc1`: 627 s. Regarding `O=c1c2cnn(-c3ccc(F)cc3)c2ncn1Cc1nc(-c2cccc(Br)c2)no1`, the RP-LC retention time came to 1130 s.

`Cc1ccc(CC#N)c(-c2c(CC#N)ccc(C)c2C)c1C` came in with an RP-LC retention time of 1170 s.

The molecule `O=C(NCCc1csc(-c2cccs2)n1)C1CCN(S(=O)(=O)c2ccc(Cl)cc2)CC1` yielded an RP-LC retention time of 963 s. `COc1ccc(Cl)cc1NC(=O)C1CCCN(C(=O)c2cc(-c3ccccn3)n[nH]2)C1` (centres undefined) returned an RP-LC retention time of 771 s. `CCCN1C(=O)c2cccnc2Sc2cc(C(=O)N3CCCC3)ccc21` came in with an RP-LC retention time of 720 s. In turn, `Cc1ccc(-c2nnc(-c3cccnc3NCCCN3CCOCC3)o2)cc1` registered an RP-LC retention time of 690 s.

`OC(COc1ccc(Br)cc1Br)CN1CCCC1` (centres undefined) registered an RP-LC retention time of 576 s. Take `CC(C)c1ccc(NC(=O)Cn2nc(N3CCSCC3)c3ccccc3c2=O)cc1`: the RP-LC retention time turned out to be 1070 s.

Consider `Cc1noc(C)c1CN1CCC(NC(=O)Cc2ccc(F)cc2)CC1`, for which the RP-LC retention time is 582 s. `CCC(=O)NCc1csc(C2CCCN(C(=O)C(C)(C)C)C2)n1` (centres undefined) had an RP-LC retention time of 681 s. `COC1CCC12CCN(S(=O)(=O)c1ccc(F)c(C)c1)CC2` (centres undefined) showed an RP-LC retention time of 1030 s. For the molecule `CNC(=O)[C@@H]1CN(C(=O)c2ccoc2C)C[C@H]1c1nc(C)no1`, the RP-LC retention time was 612 s. Consider `CNC(=O)[C@@H]1C[C@H](Oc2ccccc2)CN1C(=O)C1CC=CC1`, for which the RP-LC retention time was 710 s.

`CCCCN1C(=O)c2cc(S(=O)(=O)N3CCc4ccccc43)ccc2Oc2cccnc21` showed an RP-LC retention time of 1260 s. For the molecule `COc1ccccc1N1CCN(CCCNc2cc(=O)n(C)c(=O)n2C)CC1`, the RP-LC retention time was determined as 637 s. The molecule `CCN(CC)CCNC(=O)c1c(C)oc2c1C(=O)c1ccccc1C2=O` displayed an RP-LC retention time of 635 s. In the case of `CC(=O)NCc1ccc(-c2noc(-c3ccc(F)c(Cl)c3)n2)s1`, the RP-LC retention time came out at 955 s.

`COc1cc(C)c2c(c1C=O)Oc1c(c(C)c(O)c3c1C(O)OC3=O)OC2=O` (centres undefined): the RP-LC retention time came to 840 s. Turning to `Cc1cccc(N2CCN(Cc3nc4nc(C)cc(N5CCOCC5)n4n3)CC2)c1`, the RP-LC retention time was found to be 636 s. The molecule `Cc1nn(CC(=O)NCCCN(C)C2CCCCC2)c(=O)c2nn(-c3ccccc3)c(C)c12` gave an RP-LC retention time of 634 s.

Turning to `Cc1cccc(-n2c(=O)c3sccc3n(Cc3nc(-c4ccc(C(F)(F)F)cc4)no3)c2=O)c1`, the RP-LC retention time stood at 1120 s. Take `CCCCc1c(-c2ccc(OC)cc2)[nH]c2nccnc12`: the RP-LC retention time stood at 912 s.

In turn, `CC(C)N1C(=O)c2cccnc2Sc2cc(NC(=O)C3(c4ccccc4)CC3)ccc21` had an RP-LC retention time of 1020 s. The molecule `CCOC(=O)C1=C(C)NC(C)=C(C(=O)OCC)C1c1ccncc1` registered an RP-LC retention time of 564 s.

`Cc1ccc(-n2nc3c(N4CCCC(C(=O)NCCc5ccccc5)C4)nnc(C)c3c2C)cc1` (centres undefined) gave an RP-LC retention time of 766 s. `O=C(c1cccc(-c2nccnc2N2CCCC2)c1)N1CCN(c2ccccc2)CC1` registered an RP-LC retention time of 972 s. Molecule `Cc1ccc(N2C(=O)CSC2c2ccccc2)cc1` (centres undefined) gave an RP-LC retention time of 843 s. As to `CC1=C(c2ccc(C)cc2)S(=O)(=O)N=C1N1CCCN(C(=O)Cc2ccsc2)CC1`, the RP-LC retention time came to 847 s. The molecule `COc1ccc(NC(=O)C2(C)Oc3cccnc3NC2=O)c(OC)c1` (centres undefined) came in with an RP-LC retention time of 707 s. As to `COc1ccc2c(c1)C1(CCN(C(=O)c3ccc(F)cc3)C1)C(=O)N2C` (centres undefined), the RP-LC retention time stood at 759 s. `CCn1c(=O)sc2cc(S(=O)(=O)N3CCC(C(=O)Nc4ccccc4F)CC3)ccc21` came in with an RP-LC retention time of 899 s.

For `Cc1ccc(Cn2cc(-c3ccncc3)cc2C(=O)NCC(C)C)cc1`, the RP-LC retention time was 720 s. With `O=C(c1ccc2c(c1)OCO2)N1CCCCC1`, the RP-LC retention time came out at 722 s. In the case of `CCOc1ccc(-c2nc(C3CC(=O)N(c4ccc(Cl)cc4)C3)no2)cc1OCC` (centres undefined), the RP-LC retention time amounted to 1150 s.

Molecule `Cc1nc2nc(SCC(=O)NCCCN3CCOCC3)nn2c(C)c1Cc1ccccc1` displayed an RP-LC retention time of 622 s. `O=C(c1ccccn1)N1CCC2(CC1)NC(=O)N(Cc1ccccc1Cl)C2=O` returned an RP-LC retention time of 716 s. Next, `CCc1nc(-c2csc(S(=O)(=O)N3CCC(C(=O)Nc4ccc(C)c(Cl)c4)CC3)c2)no1`: 994 s.

On to `O=S(=O)(c1cccn2cnnc12)N(Cc1cccc(F)c1)c1ccc(F)cc1`, for which the RP-LC retention time was found to be 822 s.

Molecule `CN1c2ccc(Cl)cc2C(=O)NC12CCN(C(=O)c1ccc(F)cc1)CC2` registered an RP-LC retention time of 818 s. For the molecule `O=C(Cn1nc2c(N3CCc4ccccc4C3)nccn2c1=O)NC1CCCC1`, the RP-LC retention time was 793 s. As for `Clc1ccc(-c2csc(N3CCOCC3)n2)c(Cl)c1`, the figure is 1260 s. As for `CC(=O)Nc1ccc(NC(=O)CCNc2c(-c3ccc(F)cc3)nc3cnccn23)cc1`, the figure is 630 s. `CCc1ccc(C(=O)N2CCCC(COc3ccc(C(=O)NC(C)C)cc3)C2)cc1` (centres undefined) came in with an RP-LC retention time of 944 s. For the molecule `CC1CCN(c2cc(-n3cnc(C(=O)NC4CCCC4)c3)ncn2)CC1`, the RP-LC retention time worked out at 968 s. `Cc1ccc(F)cc1S(=O)(=O)N1CCc2c(c(-c3nnc(-c4ccccc4F)o3)nn2C)C1` displayed an RP-LC retention time of 981 s. Molecule `Cc1cc(C(F)F)n2nc(C(=O)Nc3cc(F)ccc3C)nc2n1` had an RP-LC retention time of 852 s.
